Experimental data published in PubChem BioAssay AID330 (DTP/NCI, 2004).
“And” between values parts separate entries of the source, which are not always exact repeats. Equal entries are not always repeated. Toxic doses and inconclusive results are not listed. How the source made its calls: active means survival T/C of 150% or more; inactive means T/C below 125% in these data.

Test system: P388 leukemia ip, CD2F1 mice, survival T/C
Experiment: NCI In Vivo Anticancer Drug Screen. Data for tumor model P388 Leukemia (intraperitoneal) in CD2F1 (CDF1) mice
Details: endpoint: median survival time, higher = longer survival
Summary of the method: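 Mice carrying the transplanted tumor received test compound or vehicle. Survival was recorded in each group, and the value is the treated-group measurement divided by that of the vehicle-treated control group.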

[1] = dose: 50.0 mg/kg/injection, schedule: Q01DX005 (ip), vehicle: saline
[2] = dose: 50.0 mg/kg/injection, schedule: Q01DX009 (ip), vehicle: Klucel (hydroxypropylcellulose) (HPC)
[3] = dose: 100.0 mg/kg/injection, schedule: Q01DX009 (ip), vehicle: Klucel (hydroxypropylcellulose) (HPC)
[4] = dose: 200.0 mg/kg/injection, schedule: Q01DX009 (ip), vehicle: Klucel (hydroxypropylcellulose) (HPC)
[5] = dose: 50.0 mg/kg/injection, schedule: Q01DX009 (ip), vehicle: saline with Tween-80

Measured: T/C

CC12CC(OC(=O)[C@]1(C)O)[C@@H]([C@]1(O)CC[C@H]3[C@@H]4C[C@H]5O[C@]56[C@@H](O)C=CC(=O)[C@]6(C)[C@H]4CC[C@@]31C)C2 (stereo not given in full)
inactive: dose: 2.0 mg/kg/injection, schedule: Q01DX009 (ip), vehicle: saline + alcohol 100 % of control | dose: 4.0 mg/kg/injection, schedule: Q01DX005 (ip), vehicle: saline + alcohol 108 % of control and 120 % of control | dose: 4.0 mg/kg/injection, schedule: Q01DX009 (ip), vehicle: saline + alcohol 105 % of control | dose: 8.0 mg/kg/injection, schedule: Q01DX005 (ip), vehicle: saline + alcohol 110 % of control and 111 % of control | dose: 8.0 mg/kg/injection, schedule: Q01DX009 (ip), vehicle: saline + alcohol 96 % of control | dose: 16.0 mg/kg/injection, schedule: Q01DX005 (ip), vehicle: saline + alcohol 109 % of control and 111 % of control | dose: 16.0 mg/kg/injection, schedule: Q01DX009 (ip), vehicle: saline + alcohol 96 % of control | dose: 32.0 mg/kg/injection, schedule: Q01DX005 (ip), vehicle: saline + alcohol 107 % of control | dose: 32.0 mg/kg/injection, schedule: Q01DX009 (ip), vehicle: saline + alcohol 87 % of control

NC(=N\N=C\C(O)C(O)C(O)C(O)C(=O)O)/C(N)=N/N=C/C(O)C(O)C(O)C(O)C(=O)O (stereo not given)
inactive: [1] 101 % of control | dose: 100.0 mg/kg/injection, schedule: Q01DX005 (ip), vehicle: saline 104 % of control | dose: 200.0 mg/kg/injection, schedule: Q01DX005 (ip), vehicle: saline 101 % of control

COc1cc(/C=C(\Cc2ccc(OC)c(OCc3ccccc3)c2)[N+](=O)[O-])ccc1OCc1ccccc1
inactive: [2] 89 % of control | [3] 87 % of control | [4] 88 % of control

O=C1Cc2ccccc2N1C1c2ccccc2C=Cc2ccccc21
inactive: [5] 95 % of control | dose: 100.0 mg/kg/injection, schedule: Q01DX009 (ip), vehicle: saline with Tween-80 86 % of control | dose: 200.0 mg/kg/injection, schedule: Q01DX009 (ip), vehicle: saline with Tween-80 89 % of control

CCCCCCCCCCCCNC(=O)[C@@]1(O)[C@H](O)C2(CC)C=CCN3CCC4(c5cc([C@@]6(C(=O)OC)CC7CN(CCc8c6[nH]c6ccccc86)C[C@](O)(CC)C7)c(OC)cc5N(C)[C@H]41)C32 (stereo not given in full)
active: dose: 18.0 mg/kg/injection, schedule: Q01DX005 (ip), vehicle: other 157 % of control | dose: 30.0 mg/kg/injection, schedule: Q01DX005 (ip), vehicle: other 182 % of control | dose: 30.0 mg/kg/injection, schedule: Q01DX005 (ip), vehicle: saline 160 % of control | dose: 50.0 mg/kg/injection, schedule: Q01DX005 (ip), vehicle: other 230 % of control | [1] 177 % of control

Cc1[nH]c2ccc(N(C)C)cc2c(=O)c1CN1CCOCC1
inactive: [2] 107 % of control | [3] 115 % of control | [4] 107 % of control

CCCCCCCC(=O)c1c(O)c2ccccc2oc1=O
inactive: dose: 15.0 mg/kg/injection, schedule: Q01DX005 (ip), vehicle: saline with Tween-80 102 % of control | dose: 30.0 mg/kg/injection, schedule: Q01DX005 (ip), vehicle: saline with Tween-80 105 % of control | dose: 60.0 mg/kg/injection, schedule: Q01DX005 (ip), vehicle: saline with Tween-80 103 % of control and 96 % of control

O=C1C=C(O/C=C/C(C(F)(F)F)C(F)(F)F)C(=O)c2ccccc21
inactive: [5] 115 % of control | dose: 50.0 mg/kg/injection, schedule: Q04DX003 (ip), vehicle: saline with Tween-80 91 % of control | dose: 100.0 mg/kg/injection, schedule: Q04DX003 (ip), vehicle: saline with Tween-80 95 % of control

BrC[Si](CBr)(c1ccccc1)c1ccccc1
inactive: dose: 12.5 mg/kg/injection, schedule: Q01DX009 (ip), vehicle: saline 106 % of control | dose: 25.0 mg/kg/injection, schedule: Q01DX009 (ip), vehicle: saline 106 % of control | dose: 50.0 mg/kg/injection, schedule: Q01DX009 (ip), vehicle: saline 99 % of control and 92 % of control
